From patent publication US8226943B2, “Antibodies to notch receptors” (OncoMed Pharmaceuticals, Inc., priority 2008, dated 2012)

Tests used:
B51 breast tumors = experiment: Limiting dilution assay of cancer stem cell frequency, B51 breast tumors; assay type: in vivo, NOD-SCID mice; conditions: B51, paclitaxel
Excerpt: Limiting dilution assays (LDAs) can be used to assess the effect of a Notch-binding agent on solid tumor cancer stem cells and on the tumorigenicity of a tumor comprising the cancer stem cells. The assays can be sued to determine the frequency of cancer stem cells in tumors from animals treated with the Notch-binding agent or other agent and to compare that frequency to the frequency of cancer stem cells in tumors from control animals.
An LDA was used to assess the effect on the tumorigenicity of the B51 breast tumors that were treated with the combination of control antibody (1B711) plus paclitaxel (Taxol) or treated with the combination of 59R1 and paclitaxel, as described above in Example 7. In addition, the effect of treatment of B51 breast tumors with the control antibody alone or 59R1 alone was also determined by LDA. The doses of antibodies and paclitaxel and the schedule of dosing for the control antibody group and the 59R1 group were the same as described in Example 7, above for the other two treatment groups. After three doses of antibodies and/or paclitaxel, tumors were harvested, processed and dissociated into single cells. The human tumor cells were isolated from the xenograft tumor cells by incubation with biotinylated mouse antibodies (α-mouse CD45-biotin1:200 dilution and rat α-mouse H2 Kd-biotin1:100 dilution, BioLegend, San Diego, Calif.) on ice for 30 min, followed by addition of streptavidin-labeled magnetic beads and removal of the mouse cells with the aid of a magnet. The human cells in the suspension were harvested and counted.
A serial titration of cells (30, 90, 270, and 810 cells) from each of the four treatment groups was injected in a 1:1 (v/v) mixture of FACS buffer and Matrigel into a new set of NOD-SCID mice (n=10/group). Tumors were allowed to grow for 72 days. The percentage of mice with detectable tumors was determined in all groups. The cancer stem cell frequency was then calculated using L-Calc™ software (StemCell Technologies Inc.; downloadable from www.stemcell.com/search/default.asp).

PE13 breast tumors = experiment: Microarray analysis of PE13 breast tumors treated with taxol or 59R1 plus taxol; assay type: in vivo, mice; conditions: PE13, Taxol vs. control
Experimental: In addition to investigating the effects of 59R1 in tumors and the effect on CSC frequency, gene changes were studied following 59R1 treatment in combination with taxol. The experiment was performed in PE13 breast tumors where a decrease in CSC frequency after treatment with 59R1 alone or 59R1 plus taxol treatment had previously been observed (and described herein). Microarray analysis was performed on tumors from the same experiment where limiting dilution analyses of PE13 were carried out for CSC quantification (FIG. 19). Animals bearing PE13 breast tumors were treated three weeks with 59R1 plus taxol, control and taxol prior to harvesting for microarray analysis. Mean differential expression values for taxol vs. control and 59R1 plus taxol vs. taxol treated animals (3 animals per group) were calculated.

CC(=O)O[C@H]1C(=O)[C@@]2(C)[C@H]([C@H](OC(=O)c3ccccc3)[C@]3(O)C[C@H](OC(=O)[C@H](O)[C@@H](NC(=O)c4ccccc4)c4ccccc4)C(C)=C1C3(C)C)[C@]1(OC(C)=O)CO[C@@H]1C[C@@H]2O [Taxol, paclitaxel, reference compound]
increase of frequency of cancer stem cells relative to the control (B51 breast tumors): more than two-fold | Fold BMPR1B (PE13 breast tumors): 10.2 | Fold BNIP3 (PE13 breast tumors): −2.1 | Fold EGLN3 (PE13 breast tumors): −21.1 | Fold HSPB6 (PE13 breast tumors): 13.4 | Fold ITGAM (PE13 breast tumors): 2.2 | Fold LHX8 (PE13 breast tumors): 4.6 | Fold NDRG1 (PE13 breast tumors): −9.0 | Fold RARRES1 (PE13 breast tumors): 6.4 | Fold RARRES3 (PE13 breast tumors): 2.6 | Fold RBP2 (PE13 breast tumors): 4.8 | Fold XAF1 (PE13 breast tumors): 10.6
